# Earlier results as cited in PubChem BioAssay AID1259409 (Chemical Carcinogenesis Research Information System (CCRIS), 2018).
# Tested on: rodent chemically induced tumor inhibition, incidence and multiplicity
# Test: CCRIS tumor inhibitor studies
# [1] = Carcinogen: N-BUTYL-N-(4-HYDROXYBUTYL)NITROSAMINE, 3817-11-6, Dose [Inhibitor]: 5% DIET DAILY FOR 34 WK STARTING AT COMPLETION OF CARCINOGEN TREATMENT (STUDY DURATION: 38 WK), Route [Inhibitor]: ORAL, Species: RAT, Strain/Sex: F344/MALE, Target Tissue: Type of Lesion: URINARY BLADDER: PAPILLOMA, Dose [Carcinogen]: 0.01% IN DRINKING WATER FOR 4 WK, Promoter: NONE USED
structure (smiles),measurement,setting,value
C=C1CC[C@H]2[C@@]3(C)CCC[C@]2(C)[C@H]1CO[C@@H](C(=O)OC)[C@H](CC(=O)O)C(=O)OC[C@]1(C)CCC[C@]2(C)[C@@H](CO[C@@H](C(=O)OC)[C@H](CC(=O)O)C(=O)OC3)C(=C)CC[C@@H]12,"tumour outcome (control, treated, inhibition, significance)","Carcinogen: 7,12-DIMETHYLBENZ[A]ANTHRACENE, 57-97-6, Dose [Inhibitor]: 0, 1 MG 2/WK FOR 20 WK APPLIED 10 MIN PRIOR TO EACH PROMOTER DOSE (STUDY DURATION: 20 WK), Route [Inhibitor]: DERMAL, Species: MOUSE, Strain/Sex: CD-1/FEMALE, Target Tissue: Type of Lesion: SKIN: TUMOR, Dose [Carcinogen]: 100 UG ONCE, Promoter: OKADAIC ACID, 78111-17-8","73%, 80%, -10%, not significant"
same,"tumour outcome (control, treated, inhibition, significance)","Carcinogen: 7,12-DIMETHYLBENZ[A]ANTHRACENE, 57-97-6, Dose [Inhibitor]: 0, 5 MG 2/WK FOR 20 WK APPLIED 10 MIN PRIOR TO EACH PROMOTER DOSE (STUDY DURATION: 20 WK), Route [Inhibitor]: DERMAL, Species: MOUSE, Strain/Sex: CD-1/FEMALE, Target Tissue: Type of Lesion: SKIN: TUMOR, Dose [Carcinogen]: 100 UG ONCE, Promoter: OKADAIC ACID, 78111-17-8","73%, 93%, -27%, not significant"
COc1cc2c3cc1Oc1c(OC)c(OC)cc4c1[C@@H](Cc1ccc(O)c(c1)Oc1ccc(cc1)C[C@@H]3N(C)CC2)N(C)CC4,"tumour outcome (control, treated, inhibition, significance)","Carcinogen: 7,12-DIMETHYLBENZ[A]ANTHRACENE, 57-97-6, Dose [Inhibitor]: 0, 2 UMOL 2/WK 30 MIN PRIOR TO EACH PROMOTER DOSE BEGINNING 1 WK POST CARCINOGEN DOSE (STUDY DURATION: 18 WK), Route [Inhibitor]: DERMAL, Species: MOUSE, Strain/Sex: ICR/FEMALE, Target Tissue: Type of Lesion: SKIN: PAPILLOMA, Dose [Carcinogen]: 50 UG ONCE, Promoter: 12-O-TETRADECANOYLPHORBOL-13-ACETATE, 16561-29-8","100%, 20%, 80%, not calculated"
C[Se]C[C@H](N)C(=O)O,"tumour outcome (control, treated, inhibition, significance)","Carcinogen: 7,12-DIMETHYLBENZ[A]ANTHRACENE, 57-97-6, Dose [Inhibitor]: 0, 0.000025 MOL/KG DIET BEGINNING 1 WK POST CARCINOGEN AND CONTINUED FOR STUDY DURATION (STUDY DURATION: 25 WK), Route [Inhibitor]: ORAL, Species: RAT, Strain/Sex: CD-1/FEMALE, Target Tissue: Type of Lesion: MAMMARY GLAND: ADENOCARCINOMA, Dose [Carcinogen]: 10 MG ONCE, Promoter: NONE USED","25/30 (83%), 15/30 (50%), 40%, p<0.05"
same,"tumour outcome (control, treated, inhibition, significance)","Carcinogen: 7,12-DIMETHYLBENZ[A]ANTHRACENE, 57-97-6, Dose [Inhibitor]: 0, 0.000025 MOL/KG DIET BEGINNING 2 WK PRIOR TO CARCINOGEN AND CONTINUED 1 WK POST CARCINOGEN (STUDY DURATION: 25 WK), Route [Inhibitor]: ORAL, Species: RAT, Strain/Sex: CD-1/FEMALE, Target Tissue: Type of Lesion: MAMMARY GLAND: ADENOCARCINOMA, Dose [Carcinogen]: 10 MG ONCE, Promoter: NONE USED","25/30 (83%), 17/30 (57%), 31%, p<0.05"
same,"tumour outcome (control, treated, inhibition, significance)","Carcinogen: 7,12-DIMETHYLBENZ[A]ANTHRACENE, 57-97-6, Dose [Inhibitor]: 0, 0.000025 MOL/KG DIET BEGINNING 2 WK PRIOR TO CARCINOGEN AND CONTINUED FOR STUDY DURATION (STUDY DURATION: 25 WK), Route [Inhibitor]: ORAL, Species: RAT, Strain/Sex: CD-1/FEMALE, Target Tissue: Type of Lesion: MAMMARY GLAND: ADENOCARCINOMA, Dose [Carcinogen]: 10 MG ONCE, Promoter: NONE USED","22/25 (88%), 10/25 (40%), 55%, p<0.05"
O=C1CCN(c2ccccc2)N1,"tumour outcome (control, treated, inhibition, significance)","Carcinogen: 7,12-DIMETHYLBENZ[A]ANTHRACENE, 57-97-6, Dose [Inhibitor]: 30 UMOL APPLIED 30-40 MIN BEFORE EACH TPA TREATMENT AND CONCURRENTLY WITH TPA (STUDY DURATION: 18 WK), Route [Inhibitor]: DERMAL, Species: MOUSE, Strain/Sex: CD-1/FEMALE, Target Tissue: Type of Lesion: SKIN: PAPILLOMA, Dose [Carcinogen]: 200 NMOL ONCE, Promoter: 12-O-TETRADECANOYLPHORBOL-13-ACETATE, 16561-29-8","96%, 100%, -4%, not calculated"
CC1(C)CCC2(C(=O)OC3OC(CO)C(O)C(O)C3O)CCC3(CO)C(=CCC4C5(C)CC(O)C(O)C(C)(C(=O)OC6OC(CO)C(O)C(O)C6O)C5CCC43C)C2C1 (stereo unspecified),"tumour outcome (control, treated, inhibition, significance)","Carcinogen: BENZO[A]PYRENE, 50-32-8, Dose [Inhibitor]: 0, 12.85 MG/ML IN DRINKING WATER FOR 6 WK (STUDY DURATION: 9 WK), Route [Inhibitor]: ORAL, Species: MOUSE, Strain/Sex: NIGP(S)/FEMALE, Target Tissue: Type of Lesion: LUNG: ADENOMA, Dose [Carcinogen]: 0.5 MG INJECTED IN THE SCAPULAR REGION OF NEWBORN MICE ONCE, Promoter: NONE USED","56%, 53%, 5%, not calculated"
same,"tumour outcome (control, treated, inhibition, significance)","Carcinogen: BENZO[A]PYRENE, 50-32-8, Dose [Inhibitor]: 0, 12.85 MG/ML IN DRINKING WATER FOR 6 WK (STUDY DURATION: 9 WK), Route [Inhibitor]: ORAL, Species: MOUSE, Strain/Sex: NIGP(S)/MALE, Target Tissue: Type of Lesion: LUNG: ADENOMA, Dose [Carcinogen]: 0.5 MG INJECTED IN THE SCAPULAR REGION OF NEWBORN MICE ONCE, Promoter: NONE USED","38%, 37%, 3%, not calculated"
O=C1NS(=O)(=O)c2ccccc21,"tumour outcome (control, treated, inhibition, significance)","Carcinogen: N-BUTYL-N-(4-HYDROXYBUTYL)NITROSAMINE, 3817-11-6, Dose [Inhibitor]: 0.5% DIET DAILY FOR 34 WK STARTING AT COMPLETION OF CARCINOGEN TREATMENT (STUDY DURATION: 38 WK), Route [Inhibitor]: ORAL, Species: RAT, Strain/Sex: F344/MALE, Target Tissue: Type of Lesion: URINARY BLADDER: PAPILLOMA, Dose [Carcinogen]: 0.01% IN DRINKING WATER FOR 4 WK, Promoter: NONE USED","33%, 33%, 0%, not significant"
same,"tumour outcome (control, treated, inhibition, significance)",[1],"33%, 20%, 39%, not significant"
O=CCc1c[nH]c2ccccc12,"tumour outcome (control, treated, inhibition, significance)","Carcinogen: 7,12-DIMETHYLBENZ[A]ANTHRACENE, 57-97-6, Dose [Inhibitor]: 0.1 MMOL IN 1 ML DIMETHYL SULFOXIDE ONCE 20 HR PRIOR TO CARCINOGEN ADMINISTRATION FOLLOWED BY A 14 WK OBSERVATION PERIOD, Route [Inhibitor]: GAVAGE, Species: RAT, Strain/Sex: SPRAGUE-DAWLEY/FEMALE, Target Tissue: Type of Lesion: MAMMARY GLAND: TUMOR, Dose [Carcinogen]: 12 MG IN 1 ML OLIVE OIL ONCE, Promoter: NONE USED","64%, 36%, 44%, not significant"
CCC(=O)Oc1ccc2c(c1)CC[C@@H]1[C@@H]2CC[C@]2(C)[C@@H](OC(=O)CC)CC[C@@H]12,"tumour outcome (control, treated, inhibition, significance)","Carcinogen: 1,2-DIMETHYLHYDRAZINE, 540-73-8, Dose [Inhibitor]: 0, 0.1 ML OF A SOLUTION IN OLIVE OIL 1/WK FOR 30 WK ADMINISTERED 1 DAY PRIOR TO EACH CARCINOGEN DOSE AND CONTINUING FOR, Route [Inhibitor]: SUBCUTANEOUS, Species: MOUSE, Strain/Sex: C3H/FEMALE, Target Tissue: Type of Lesion: CLITORAL GLAND: TUMORS, Dose [Carcinogen]: 8 MG/KG BW 1/WK FOR 20 WK, Promoter: NONE USED","23/36 (64%), 7/37 (19%), 70%, p=0.026"
same,"tumour outcome (control, treated, inhibition, significance)","Carcinogen: 7,12-DIMETHYLBENZ[A]ANTHRACENE, 57-97-6, Dose [Inhibitor]: 0, 1 MG/100 G BW 1/WK FOR 150 D BEGINNING POST CARCINOGEN TREATMENT (STUDY DURATION: 150 D), Route [Inhibitor]: SUBCUTANEOUS, Species: RAT, Strain/Sex: WISTAR/FEMALE, Target Tissue: Type of Lesion: MAMMARY GLAND: ADENOCARCINOMA, Dose [Carcinogen]: 4 MG IN 0.1 ML OF SESAME OIL INJECTED ONCE INTO THE EXPOSED MAMMARY TISSUE OF HYPERPROLACTINEMIC RATS ON DAY 73 OF AGE, Promoter: NONE USED","8/11 (73%), 1/7 (14%), 81%, p<0.05"
COc1ccc2nc(S(=O)Cc3ncc(C)c(OC)c3C)[nH]c2c1 (stereo unspecified),"tumour outcome (control, treated, inhibition, significance)","Carcinogen: AZOXYMETHANE, 25843-45-2, Dose [Inhibitor]: 0, 40 UMOL/KG 1/D FOR 27 WK BEGINNING 6 WK PRIOR TO CARCINOGEN TREATMENT (STUDY DURATION: 27 WK), Route [Inhibitor]: GAVAGE, Species: RAT, Strain/Sex: SPRAGUE-DAWLEY/FEMALE, Target Tissue: Type of Lesion: COLON: TUMOR, Dose [Carcinogen]: 10 MG/KG 1/WK FOR 12 WK, Promoter: NONE USED","19/20 (95%), 12/19 (63%), 34%, p<0.02"
NC(Cc1c[nH]c2ccccc12)C(=O)O (stereo unspecified),"tumour outcome (control, treated, inhibition, significance)",[1],"33%, 27%, 18%, not significant"
